Laboratory results as given in PubChem BioAssay AID2060885 (Molecular Pharmacology Branch, DTP, NCI, 2025).

Tested on: NCI-H23 complex spheroids with HUVEC/MSC, viability
Assay: Anticancer human tumor NCI-H23 cell line growth inhibition [RAS];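 further: spheroids exposed to compound for 7 days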;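 on viability, T/C: 100% = DMSO vehicle control viability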
Details: for IC50: curve of first compound; for viability, T/C: stronger effect = lower value
How it was run: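 Agents were tested in combination matrices in half-log decrements from a top concentration at or near clinical Cmax (10 microM if undetermined). Targets were multi-cell spheroids of tumour lines plus HUVEC and MSC stromal cells.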

## CC1(C)CCC(Nc2ncc(C(F)(F)F)c(-c3c[nH]c4c(P(C)(C)=O)c(C#N)ccc34)n2)CN1 (centres undefined) + C#Cc1c(F)ccc2cc(O)cc(-c3ncc4c(N5CC6CCC(C5)N6)nc(OCC56CCCN5CC(F)C6)nc4c3F)c12
Second compound 0.0316 µM
  IC50: 25.3 nM
Second compound 0.1 µM
  IC50: > 300 nM
Second compound 0.316 µM
  IC50: 13.3 nM
Second compound 1 µM
  IC50: 5.95 nM
Second compound 3.16 µM
  IC50: < 0.949 nM
Second compound 10 µM
  IC50: < 0.949 nM
Second compound 0.0316 µM, first compound 0.000949 µM
  viability, T/C: 77.4%
Second compound 0.0316 µM, first compound 0.003 µM
  viability, T/C: 95.5%
Second compound 0.0316 µM, first compound 0.00949 µM
  viability, T/C: 64.1%
Second compound 0.0316 µM, first compound 0.03 µM
  viability, T/C: 46.9%
Second compound 0.0316 µM, first compound 0.0949 µM
  viability, T/C: 42.9%
Second compound 0.0316 µM, first compound 0.3 µM
  viability, T/C: 53%
Second compound 0.1 µM, first compound 0.000949 µM
  viability, T/C: 105%
Second compound 0.1 µM, first compound 0.003 µM
  viability, T/C: 87.7%
Second compound 0.1 µM, first compound 0.00949 µM
  viability, T/C: 60.6%
Second compound 0.1 µM, first compound 0.03 µM
  viability, T/C: 46.7%
Second compound 0.1 µM, first compound 0.0949 µM
  viability, T/C: 44.5%
Second compound 0.1 µM, first compound 0.3 µM
  viability, T/C: 59.2%
Second compound 0.316 µM, first compound 0.000949 µM
  viability, T/C: 82.9%
Second compound 0.316 µM, first compound 0.003 µM
  viability, T/C: 75.6%
Second compound 0.316 µM, first compound 0.00949 µM
  viability, T/C: 52.2%
Second compound 0.316 µM, first compound 0.03 µM
  viability, T/C: 44.8%
Second compound 0.316 µM, first compound 0.0949 µM
  viability, T/C: 35.6%
Second compound 0.316 µM, first compound 0.3 µM
  viability, T/C: 40.8%
Second compound 1 µM, first compound 0.000949 µM
  viability, T/C: 83.2%
Second compound 1 µM, first compound 0.003 µM
  viability, T/C: 60.8%
Second compound 1 µM, first compound 0.00949 µM
  viability, T/C: 42.7%
Second compound 1 µM, first compound 0.03 µM
  viability, T/C: 38.2%
Second compound 1 µM, first compound 0.0949 µM
  viability, T/C: 39%
Second compound 1 µM, first compound 0.3 µM
  viability, T/C: 36.8%
Second compound 3.16 µM, first compound 0.000949 µM
  viability, T/C: 45%
Second compound 3.16 µM, first compound 0.003 µM
  viability, T/C: 37.9%
Second compound 3.16 µM, first compound 0.00949 µM
  viability, T/C: 33%
Second compound 3.16 µM, first compound 0.03 µM
  viability, T/C: 28.4%
Second compound 3.16 µM, first compound 0.0949 µM
  viability, T/C: 33%
Second compound 3.16 µM, first compound 0.3 µM
  viability, T/C: 31.4%
Second compound 10 µM, first compound 0.000949 µM
  viability, T/C: 29.7%
Second compound 10 µM, first compound 0.003 µM
  viability, T/C: 29.1%
Second compound 10 µM, first compound 0.00949 µM
  viability, T/C: 25.1%
Second compound 10 µM, first compound 0.03 µM
  viability, T/C: 21.7%
Second compound 10 µM, first compound 0.0949 µM
  viability, T/C: 19.3%
Second compound 10 µM, first compound 0.3 µM
  viability, T/C: 18.4%

## C=CC(=O)Nc1cc(Nc2nccc(-c3cn(C)c4ccccc34)n2)c(OC)cc1N(C)CCN(C)C + C=CC(=O)N1CCN(c2nc(OCC3CCCN3C)nc3c(F)c(-c4nc(N)cc(C)c4C(F)(F)F)c(Cl)cc23)C(C)C1
Second compound 0.00316 µM
  IC50: 1000 nM
Second compound 0.01 µM
  IC50: 7.6 nM
Second compound 0.0316 µM
  IC50: 3.62 nM
Second compound 0.1 µM
  IC50: < 3.16 nM
Second compound 0.316 µM
  IC50: < 3.16 nM
Second compound 1 µM
  IC50: < 3.16 nM
Second compound 0.00316 µM, first compound 0.00316 µM
  viability, T/C: 66.1%
Second compound 0.00316 µM, first compound 0.01 µM
  viability, T/C: 83.2%
Second compound 0.00316 µM, first compound 0.0316 µM
  viability, T/C: 56.1%
Second compound 0.00316 µM, first compound 0.1 µM
  viability, T/C: 53.5%
Second compound 0.00316 µM, first compound 0.316 µM
  viability, T/C: 57.2%
Second compound 0.00316 µM, first compound 1 µM
  viability, T/C: 49.6%
Second compound 0.01 µM, first compound 0.00316 µM
  viability, T/C: 51.5%
Second compound 0.01 µM, first compound 0.01 µM
  viability, T/C: 52.9%
Second compound 0.01 µM, first compound 0.0316 µM
  viability, T/C: 45.1%
Second compound 0.01 µM, first compound 0.1 µM
  viability, T/C: 36.9%
Second compound 0.01 µM, first compound 0.316 µM
  viability, T/C: 43.1%
Second compound 0.01 µM, first compound 1 µM
  viability, T/C: 37.1%
Second compound 0.0316 µM, first compound 0.00316 µM
  viability, T/C: 49.4%
Second compound 0.0316 µM, first compound 0.01 µM
  viability, T/C: 48.3%
Second compound 0.0316 µM, first compound 0.0316 µM
  viability, T/C: 40.4%
Second compound 0.0316 µM, first compound 0.1 µM
  viability, T/C: 35.2%
Second compound 0.0316 µM, first compound 0.316 µM
  viability, T/C: 37.1%
Second compound 0.0316 µM, first compound 1 µM
  viability, T/C: 33.6%
Second compound 0.1 µM, first compound 0.00316 µM
  viability, T/C: 45%
Second compound 0.1 µM, first compound 0.01 µM
  viability, T/C: 39.4%
Second compound 0.1 µM, first compound 0.0316 µM
  viability, T/C: 33.8%
Second compound 0.1 µM, first compound 0.1 µM
  viability, T/C: 34.4%
Second compound 0.1 µM, first compound 0.316 µM
  viability, T/C: 29.6%
Second compound 0.1 µM, first compound 1 µM
  viability, T/C: 27.3%
Second compound 0.316 µM, first compound 0.00316 µM
  viability, T/C: 44.7%
Second compound 0.316 µM, first compound 0.01 µM
  viability, T/C: 43%
Second compound 0.316 µM, first compound 0.0316 µM
  viability, T/C: 34%
Second compound 0.316 µM, first compound 0.1 µM
  viability, T/C: 32%
Second compound 0.316 µM, first compound 0.316 µM
  viability, T/C: 29.4%
Second compound 0.316 µM, first compound 1 µM
  viability, T/C: 35.5%
Second compound 1 µM, first compound 0.00316 µM
  viability, T/C: 39.2%
Second compound 1 µM, first compound 0.01 µM
  viability, T/C: 41.5%
Second compound 1 µM, first compound 0.0316 µM
  viability, T/C: 36.9%
Second compound 1 µM, first compound 0.1 µM
  viability, T/C: 34.9%
Second compound 1 µM, first compound 0.316 µM
  viability, T/C: 30.9%
Second compound 1 µM, first compound 1 µM
  viability, T/C: 28.3%
